Source: patent US7635664B2, “Herbicidal substituted benzoylpyrazoles” (Bayer CropScience AG, priority 2001, dated 2009)

Legend:
weeds [1] = test: Pre-emergence test (Example A), weeds; assay type: in vivo; conditions: soil sprayed 24 hours after sowing; rated after three weeks as % damage vs untreated control
Method: (§1) To produce a suitable preparation of active compound, 1 part by weight of active compound is mixed with the stated amount of solvent, the stated amount of emulsifier is added and the concentrate is diluted with water to the desired concentration.
Seeds of the test plants are sown in normal soil. After 24 hours, the soil is sprayed with the preparation of active compound such that the particular amount of active compound desired is applied per unit area. The concentration of active compound in the spray liquor is chosen such that the particular amount of active compound desired is applied in 1000 liters of water per hectare.
After three weeks, the degree of damage to the plants is rated in % damage in comparison to the development of the untreated control. The figures denote: • 0%=no effect (like untreated control) • 100%=total destruction

weeds [2] = test: Post-emergence test (Example B), weeds; assay type: in vivo; conditions: test plants of a height of 5-15 cm sprayed; rated after three weeks as % damage vs untreated control
Method: as §1
Test plants of a height of 5-15 cm are sprayed with the preparation of active compound such that the particular amounts of active compound desired are applied per unit area. The concentration of the spray liquor is chosen such that the particular amounts of active compound desired are applied in 1000 l of water/ha.
After three weeks, the degree of damage to the plants is rated in % damage in comparison to the development of the untreated control.
The figures denote: • 0%=no effect (like untreated control) • 100%=total destruction

[3] = logP determination by HPLC on reversed-phase column, acidic range; assay type: physicochemical; conditions: for chromatographic logP: reversed-phase C18 HPLC column, pH=2.3; for logP / logP a): marked a): acidic range, 43° C.; for logP: 0.1% aqueous phosphoric acid/acetonitrile gradient, reversed-phase C 18 HPLC; for logP a): 0.1% aqueous phosphoric acid, acetonitrile gradient
Description: (a) Mobile phases for the determination in the acidic range: 0.1% aqueous phosphoric acid, acetonitrile; linear gradient from 10% acetonitrile to 90% acetonitrile—the corresponding measurement results in Table 1 are marked ^a).

logP [3] | Structure (SMILES) | activity against weeds, pre-emergence (weeds [1]) | logP a) [3] | further results
(I-2) logP = 1,39^a) | CCn1ncc(C(=O)c2ccc(Cl)c(NC(=O)N(C)OC)c2Cl)c1O [Example 2] | strong activity | – | activity against weeds, post-emergence (weeds [2]): strong activity
(I-2) logP = 1.13^a) | CON(C)C(=O)Nc1c(Cl)ccc(C(=O)c2cnn(C)c2O)c1Cl [Example 3] | strong activity | – | –
(I-2) logP = 1.32^a) | CN1CCN(C(=O)Nc2c(Cl)ccc(C(=O)c3cnn(C)c3O)c2Cl)C1=O [Example 4] | strong activity | – | –
(I-2) logP = 1.13^a) | CCn1ncc(C(=O)c2ccc(Cl)c(NC(=O)N3CCOCC3)c2Cl)c1O [Example 6] | strong activity | – | –

Second part, the compound before the results:

Structure (SMILES) | logP [3] | activity against weeds, pre-emergence (weeds [1]) | logP a) [3] | further results
CCn1ncc(C(=O)c2ccc(Cl)c(NC(=O)N3CCN(C)C3=O)c2Cl)c1O [Example 1, N-[2,6-dichloro-3-[(1-ethyl-5-hydroxy-1H-pyrazol-4-yl)-carbonyl]-phenyl]-3-methyl-2-oxo-1-imidazolidinecarboxamide] | – | strong activity | – | activity against weeds, post-emergence (weeds [2]): strong activity; chromatographic logP [3]: 1.58
CCn1ncc(C(=O)c2ccc(Cl)c(NC(=O)N3CCCN(C)C3=O)c2Cl)c1O [Example 5] | (I-2) logP = 1.83^a) | strong activity | – | activity against weeds, post-emergence (weeds [2]): strong activity
CN1CCN(C(=O)Nc2c(Cl)ccc(C(=O)O)c2Cl)C1=O [III-1, 2,4-dichloro-3-[[(3-methyl-2-oxo-1-imidazolidinyl)-carbonyl]-amino]-benzoic acid] | – | – | – | chromatographic logP [3]: 1.35
COC(=O)c1ccc(Cl)c(NC(=O)N2CCN(C)C2=O)c1Cl [IIIa-1, methyl 2,4-dichloro-3-[[(3-methyl-2-oxo-1-imidazolidinyl)-carbonyl]-amino]-benzoate] | – | – | – | chromatographic logP [3]: 1.94
COC(=O)c1ccc(Cl)c(NC(=O)N2CCOCC2)c1Cl [IIIa-6] | – | – | logP = 1.34^a) | –
COC(=O)c1ccc(Cl)c(NC(=O)NN(C)C)c1Cl [IIIa-7] | – | – | logP = 1.64^a) | –
COC(=O)c1ccc(Cl)c(NC(=O)N2CCN(C)CC2)c1Cl [IIIa-8] | – | – | logP = 0.50^a) | –
COC(=O)c1ccc(C(F)(F)F)cc1NC(=O)N(C)OC [IIIa-9] | – | – | logP = 3.35^a) | –
COC(=O)c1ccc(C(F)(F)F)cc1NC(=O)N1CCN(C)C1=O [IIIa-10] | – | – | logP = 2.76^a) | –
